Source: PubChem BioAssay AID256 (DTP/NCI, 2004)
Inconclusive results and toxic doses are left out.

System: CD2F1 mice, L1210 leukemia ip, survival T/C
Test: NCI In Vivo Anticancer Drug Screen. Data for tumor model L1210 Leukemia (intraperitoneal) in CD2F1 (CDF1) mice
Conditions: higher = longer survival
In short: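 Transplantable tumor in mice; compound-treated vs vehicle-treated groups. Read-out = treated/control ratio of the measured endpoint.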

[1] = endpoint: mean survival time, dose: 50.0 mg/kg/injection, schedule: Q01DX009 (ip), vehicle: saline with Tween-80
[2] = endpoint: mean survival time, dose: 100.0 mg/kg/injection, schedule: Q01DX009 (ip), vehicle: saline with Tween-80
[3] = endpoint: mean survival time, dose: 100.0 mg/kg/injection, schedule: Q04DX003 (ip), vehicle: saline with Tween-80
[4] = endpoint: mean survival time, dose: 200.0 mg/kg/injection, schedule: Q04DX003 (ip), vehicle: saline with Tween-80
[5] = endpoint: mean survival time, dose: 400.0 mg/kg/injection, schedule: Q01DX009 (ip), vehicle: saline with Tween-80
[6] = endpoint: mean survival time, dose: 400.0 mg/kg/injection, schedule: Q04DX003 (ip), vehicle: saline with Tween-80
[7] = endpoint: mean survival time, dose: 100.0 mg/kg/injection, schedule: Q01DX001 (ip), vehicle: saline
[8] = endpoint: mean survival time, dose: 100.0 mg/kg/injection, schedule: Q04DX003 (ip), vehicle: saline
[9] = endpoint: mean survival time, dose: 200.0 mg/kg/injection, schedule: Q01DX001 (ip), vehicle: saline
[10] = endpoint: mean survival time, dose: 200.0 mg/kg/injection, schedule: Q04DX003 (ip), vehicle: saline
[11] = endpoint: mean survival time, dose: 400.0 mg/kg/injection, schedule: Q01DX001 (ip), vehicle: saline
[12] = endpoint: mean survival time, dose: 400.0 mg/kg/injection, schedule: Q04DX003 (ip), vehicle: saline
[13] = endpoint: mean survival time, dose: 200.0 mg/kg/injection, schedule: Q01DX009 (ip), vehicle: saline with Tween-80
[14] = endpoint: mean survival time, dose: 25.0 mg/kg/injection, schedule: Q01DX009 (ip), vehicle: saline
[15] = endpoint: mean survival time, dose: 100.0 mg/kg/injection, schedule: Q01DX009 (ip), vehicle: saline

## CCCCCCC#CC(O)CC (configuration not stated)
[1]
  T/C: 97 % of control
[2]
  T/C: 105 % of control

## O=C(NC1CCc2ccccc21)c1ccccc1 (configuration not stated)
[3]
  T/C: 96 % of control
[4]
  T/C: 94 % of control
[5]
  T/C: 87 % of control
[6]
  T/C: 97 % of control

## COc1cc(C=O)cc(O)c1O
endpoint: mean survival time, dose: 50.0 mg/kg/injection, schedule: Q01DX001 (ip), vehicle: saline
  T/C: 94 % of control
[7]
  T/C: 96 % of control
[8]
  T/C: 95 % of control
[9]
  T/C: 91 % of control
[10]
  T/C: 92 % of control
[11]
  T/C: 89 % of control
[12]
  T/C: 92 % of control

## COc1cc(Cl)cc(OC)c1
[2]
  T/C: 100 % of control
[13]
  T/C: 104 % of control
[5]
  T/C: 103 % of control

## CC1(C(=O)O)CC1(C)C(=O)O (configuration not stated)
[2]
  T/C: 93 % of control
[13]
  T/C: 91 % of control
[5]
  T/C: 90 % of control

## CCCCCCCCCCCCCCCC(=O)N1CCN(C)CC1
[1]
  T/C: 89 % of control
[2]
  T/C: 91 % of control
[3]
  T/C: 93 % of control
[4]
  T/C: 90 % of control

## Nc1cc(Cl)ccc1C(=O)O
[2]
  T/C: 103 % of control
[13]
  T/C: 104 % of control
[5]
  T/C: 86 % of control

## CC(N)CC(=O)NO (configuration not stated)
[7]
  T/C: 104 % of control
[9]
  T/C: 104 % of control
[11]
  T/C: 108 % of control

## Cn1c(CC(O)(C(F)(F)F)C(F)(F)F)cc2ccccc21
endpoint: mean survival time, dose: 100.0 mg/kg/injection, schedule: Q01DX001 (ip), vehicle: other
  T/C: 106 % of control
endpoint: mean survival time, dose: 200.0 mg/kg/injection, schedule: Q01DX001 (ip), vehicle: other
  T/C: 92 % of control
endpoint: mean survival time, dose: 400.0 mg/kg/injection, schedule: Q01DX001 (ip), vehicle: other
  T/C: 95 % of control

## NC1CCC(=O)NC1c1ccccc1 (configuration not stated)
endpoint: mean survival time, dose: 100.0 mg/kg/injection, schedule: Q04DX002 (ip), vehicle: saline
  T/C: 97 % of control
endpoint: mean survival time, dose: 200.0 mg/kg/injection, schedule: Q04DX002 (ip), vehicle: saline
  T/C: 101 % of control
endpoint: mean survival time, dose: 400.0 mg/kg/injection, schedule: Q04DX002 (ip), vehicle: saline
  T/C: 101 % of control

## CCOC(=O)C(=O)Nc1cc(C)ccc1C
endpoint: mean survival time, dose: 6.25 mg/kg/injection, schedule: Q01DX009 (ip), vehicle: saline with Tween-80
  T/C: 96 % of control
endpoint: mean survival time, dose: 12.5 mg/kg/injection, schedule: Q01DX009 (ip), vehicle: saline with Tween-80
  T/C: 95 % of control
endpoint: mean survival time, dose: 25.0 mg/kg/injection, schedule: Q01DX009 (ip), vehicle: saline with Tween-80
  T/C: 98 % of control

## Cc1nc(N)[nH]c(=O)c1CCCNCc1ccncc1
endpoint: mean survival time, dose: 100.0 mg/kg/injection, schedule: Q01DX001 (ip), vehicle: saline with Tween-80
  T/C: 87 % of control
endpoint: mean survival time, dose: 200.0 mg/kg/injection, schedule: Q01DX001 (ip), vehicle: saline with Tween-80
  T/C: 91 % of control
endpoint: mean survival time, dose: 400.0 mg/kg/injection, schedule: Q01DX001 (ip), vehicle: saline with Tween-80
  T/C: 90 % of control

## [Cl][Hg][Cl]
endpoint: median survival time, dose: 0.39 mg/kg/injection, schedule: Q01DX009 (ip), vehicle: saline
  T/C: 101 % of control
endpoint: median survival time, dose: 0.78 mg/kg/injection, schedule: Q01DX009 (ip), vehicle: saline
  T/C: 97 % of control
endpoint: median survival time, dose: 1.56 mg/kg/injection, schedule: Q01DX009 (ip), vehicle: saline
  T/C: 101 % of control
endpoint: median survival time, dose: 3.12 mg/kg/injection, schedule: Q01DX009 (ip), vehicle: saline
  T/C: 92 % of control

## CC(=O)CC(=O)OCc1ccccc1
[3]
  T/C: 100 % of control
[4]
  T/C: 95 % of control
[6]
  T/C: 103 % of control

## CN(C)CCNC(=O)C(c1ccccc1)c1ccccc1
[3]
  T/C: 104 % of control

## S=C1SCCN1c1ccccc1
[2]
  T/C: 96 % of control
[3]
  T/C: 103 % of control
[13]
  T/C: 96 % of control
[4]
  T/C: 101 % of control
[5]
  T/C: 95 % of control
[6]
  T/C: 100 % of control

## Nc1nc([Se]Cc2ccc([N+](=O)[O-])cc2)c2ncn(C3OC(CO)C(O)C3O)c2n1 (configuration not stated)
[14]
  T/C: 111 % of control
endpoint: mean survival time, dose: 50.0 mg/kg/injection, schedule: Q01DX009 (ip), vehicle: saline
  T/C: 119 % of control
[15]
  T/C: 100 % of control

## Cc1cc([N+](=O)[O-])c2ccccc2[n+]1[O-]
[3]
  T/C: 100 % of control

## CS(=O)(=O)c1ncc[nH]1
[3]
  T/C: 100 % of control
[4]
  T/C: 109 % of control
[6]
  T/C: 109 % of control

## Nc1nc(N)c2nc(CNc3ccc(C(=O)NCCCC(=O)O)cc3)cnc2n1 (tested in a mixture with another compound)
endpoint: mean survival time, dose: 1.0 mg/kg/injection, schedule: Q01DX009 (ip), vehicle: Klucel (hydroxypropylcellulose) (HPC)
  T/C: 97 % of control
endpoint: mean survival time, dose: 5.0 mg/kg/injection, schedule: Q01DX009 (ip), vehicle: Klucel (hydroxypropylcellulose) (HPC)
  T/C: 102 % of control
endpoint: mean survival time, dose: 10.0 mg/kg/injection, schedule: Q01DX009 (ip), vehicle: Klucel (hydroxypropylcellulose) (HPC)
  T/C: 108 % of control
endpoint: mean survival time, dose: 20.0 mg/kg/injection, schedule: Q01DX009 (ip), vehicle: Klucel (hydroxypropylcellulose) (HPC)
  T/C: 102 % of control

## CCCCCCCCCCCCCCCCCCCCCC(=O)Nc1ccn(C2OC(CO)C(O)C2O)c(=O)n1 (configuration not stated)
endpoint: mean survival time, dose: 100.0 mg/kg/injection, schedule: Q04DX002 (ip), vehicle: saline with Tween-80
  T/C: 212 % of control
endpoint: mean survival time, dose: 200.0 mg/kg/injection, schedule: Q04DX002 (ip), vehicle: saline with Tween-80
  T/C: 253 % of control
endpoint: mean survival time, dose: 400.0 mg/kg/injection, schedule: Q04DX002 (ip), vehicle: saline with Tween-80
  T/C: 325 % of control

## N#CCCC(=O)c1nc(N)nc(N)n1
[1]
  T/C: 91 % of control
[2]
  T/C: 91 % of control
[13]
  T/C: 91 % of control

## COc1cc(C2CNCc3cc(OC)c(OC)cc32)ccc1O (configuration not stated)
endpoint: mean survival time, dose: 75.0 mg/kg/injection, schedule: Q01DX001 (ip), vehicle: saline
  T/C: 96 % of control
endpoint: mean survival time, dose: 150.0 mg/kg/injection, schedule: Q01DX001 (ip), vehicle: saline
  T/C: 104 % of control
endpoint: mean survival time, dose: 300.0 mg/kg/injection, schedule: Q01DX001 (ip), vehicle: saline
  T/C: 100 % of control

## c1ccc(CCSc2ncnc3nc[nH]c23)cc1
endpoint: mean survival time, dose: 100.0 mg/kg/injection, schedule: Q01DX007 (ip), vehicle: saline
  T/C: 103 % of control
[15]
  T/C: 122 % of control
endpoint: mean survival time, dose: 100.0 mg/kg/injection, schedule: Q03DX003 (ip), vehicle: saline
  T/C: 96 % of control
[8]
  T/C: 98 % of control
endpoint: mean survival time, dose: 200.0 mg/kg/injection, schedule: Q01DX007 (ip), vehicle: saline
  T/C: 111 % of control
endpoint: mean survival time, dose: 200.0 mg/kg/injection, schedule: Q01DX009 (ip), vehicle: saline
  T/C: 113 % of control
endpoint: mean survival time, dose: 200.0 mg/kg/injection, schedule: Q03DX003 (ip), vehicle: saline
  T/C: 102 % of control
[10]
  T/C: 103 % of control
endpoint: mean survival time, dose: 400.0 mg/kg/injection, schedule: Q01DX007 (ip), vehicle: saline
  T/C: 120 % of control
endpoint: mean survival time, dose: 400.0 mg/kg/injection, schedule: Q01DX009 (ip), vehicle: saline
  T/C: 124 % of control
endpoint: mean survival time, dose: 400.0 mg/kg/injection, schedule: Q03DX003 (ip), vehicle: saline
  T/C: 106 % of control
[12]
  T/C: 106 % of control

## Cc1cc(C(O)(C(=O)O)c2ccccc2)c(C)c(C)c1C (configuration not stated)
endpoint: mean survival time, dose: 75.0 mg/kg/injection, schedule: Q01DX001 (ip), vehicle: other
  T/C: 90 % of control
endpoint: mean survival time, dose: 150.0 mg/kg/injection, schedule: Q01DX001 (ip), vehicle: other
  T/C: 94 % of control
endpoint: mean survival time, dose: 300.0 mg/kg/injection, schedule: Q01DX001 (ip), vehicle: other
  T/C: 102 % of control

## O=C(C[n+]1cc2ccccc2c2ccccc21)c1ccccc1
[8]
  T/C: 95 % of control
[10]
  T/C: 86 % of control

## Cn1c(C(N)=O)cc(=O)n1-c1ccccc1
endpoint: mean survival time, dose: 100.0 mg/kg/injection, schedule: Q01DX001 (ip), vehicle: saline sonified
  T/C: 102 % of control
[2]
  T/C: 107 % of control
endpoint: mean survival time, dose: 200.0 mg/kg/injection, schedule: Q01DX001 (ip), vehicle: saline sonified
  T/C: 96 % of control
[13]
  T/C: 103 % of control
endpoint: mean survival time, dose: 400.0 mg/kg/injection, schedule: Q01DX001 (ip), vehicle: saline sonified
  T/C: 98 % of control
[5]
  T/C: 105 % of control

## CC(C)C1=CC2=C(CC1)C1(C)CCCC(C)(C(=O)O)C1CC2 (configuration not stated)
[2]
  T/C: 98 % of control
[3]
  T/C: 104 % of control
[13]
  T/C: 96 % of control
[4]
  T/C: 98 % of control
[5]
  T/C: 89 % of control
[6]
  T/C: 93 % of control

## Fc1ccc(NC(=S)S)cc1
endpoint: mean survival time, dose: 6.25 mg/kg/injection, schedule: Q01DX009 (ip), vehicle: saline
  T/C: 86 % of control
endpoint: mean survival time, dose: 12.5 mg/kg/injection, schedule: Q01DX009 (ip), vehicle: saline
  T/C: 114 % of control
[14]
  T/C: 93 % of control
